# “Also recorded” adds a separate entry of the source.
# How the values were obtained:
# [1] = molecular target: T1, hCXCR4-GFP (Homo sapiens, UniProt P61073); assay: Chemotaxis assay, hCXCR4-GFP expressing 300.19 cells, CXCL12; type: cell-based; conditions: hCXCR4-GFP 300.19 cells, CXCL12
# Description: (§1) Cells were suspended in chemotaxis buffer (RPMI 1640, 1% fetal bovine serum, 1 mM HEPES) at a concentration of 1×10^7 cells per ml. Cell chemotaxis was determined by examining the migration of the 300.19 cells in response to administration of 50 μM test compound plus an optimized concentration of CXCL12 using a chemotaxis assay that was previously described in Basu et al. (Basu et al., Critical role for polar residues in coupling leukotriene B4 binding to signal transduction in BLT1, J. Biol. Chem. (2007) Vol. 282, pp. 10005-17). 100 μL of 300.19 cells from the above cell suspension were placed in the upper chamber of a Transwell support (Corning Costar, Cambridge, Mass.) and were separated by a 5 micron filter from a bottom chamber containing 50 μM test compound plus the optimized concentration of CXCL12 in a final bottom chamber volume of 600 μl. After 3 h of incubation at 37° C. in 5% CO2, the upper chamber was removed and cells in the lower chamber were counted in a Bürker chamber. Cell counts for all samples were normalized to a CXCL12 plus DMSO control and results are reported using this normalized measure, referred to herein as the chemotaxis index. In some instances, the IC50 concentration (i.e., the concentration at which the chemotaxis index is reduced to 50% of the chemotaxis index of the CXCL12 plus DMSO control) of the test compounds was determined. All assays were performed a minimum of four times; error bars represent the standard deviation of the mean.
# [2] = Test for toxicity in mice; type: in vivo; conditions: i.p. 5 mg/kg, then 20 or 40 mg/kg two days later; observed over 3 weeks
# Description: Test for Toxicity: Mice were treated by intra-peritoneal injections of three of compounds I-28, I-36, and I-38 at the first dose of 5 mg/kg of body weight, followed by a second injection of either 20 mg/kg of body weight or 40 mg/kg of body weight two days later.
# [3] = test system: TC-1 tumor cells; type: in vivo; conditions: 5 mg/kg i.p. every day for 21 days
# Text: Development of Animal Model for CXCR4 Dependent Cancer Metastasis in Lungs: To establish a CXCR4 dependent lung tumor metastasis model, we first screened several cancer cell lines that are known to metastasize to lungs in mice models to determine which cancer cell lines endogenously express CXCR4 receptor. The mice cell lines screened were Lewis lung carcinoma, B16F10 melanoma, and TC-1 cervical carcinoma. Mice cell lines were screened using flow cytometry-based surface receptor staining using a fluorochrome labeled antibody to mouse CXCR4 receptor. […] The TC-1 cell line was generated by transfection of murine lung squamous epithelial cells by Human pappillomavirus (HPV) oncogenes E6, E7, and activated Ras.
# 5 mg/kg body weight of AMD3100, I-28, I-36, or I-38 were also injected at the same dose intra-peritoneal (i.p.) every day for 21 days starting from the day before the tumor cell injection. Mice were sacrificed and lungs were perfused and collected on day 21 post tumor challenge. Lungs were stored in formalin for 16 hrs and then transferred into 70% ethanol until the lung lobes became lucid. All five lung lobes were separated. Tumors were counted using a magnifying glass or a microscope. Tumor sizes were measured using a digital caliper. The total number of tumors counted in all five lung lobes of an individual mouse is reported as the tumor incidence. Mean tumor sizes were added together to calculate cumulative tumor size, which is reported as the tumor burden for each mouse.
# [4] = test system: 300.19 cells; assay: Cytotoxicity assay, propidium iodide based flow cytometry; type: cell-based; conditions: 50 μM test compound
# Description: Cytotoxicity Assay Method: To determine the potential for test compound cytotoxicity to influence cell intracellular calcium mobilization and chemotaxis, cell cytotoxicity was assessed using propidium iodide (PI) based flow cytometry. Propidium iodine is impermeable to intact cell membranes and thus its lack of intercalation into DNA (which increases PI fluorescence) is a positive indicator of cell viability. Cytotoxicity values are presented as percentage of cells staining positive for PI. Lower values of fluorescence indicate less cytotoxicity. All assays were performed a minimum of four times; error bars represent the standard deviation of the mean.
# [5] = molecular target: T2, BLT1 (Homo sapiens, UniProt Q15722); assay: Chemotaxis assay, cells expressing BLT1, LTB4; type: cell-based; conditions: 50 μM test compound, LTB4-induced
# T2 sequence (Q15722 whole entry, species assumed): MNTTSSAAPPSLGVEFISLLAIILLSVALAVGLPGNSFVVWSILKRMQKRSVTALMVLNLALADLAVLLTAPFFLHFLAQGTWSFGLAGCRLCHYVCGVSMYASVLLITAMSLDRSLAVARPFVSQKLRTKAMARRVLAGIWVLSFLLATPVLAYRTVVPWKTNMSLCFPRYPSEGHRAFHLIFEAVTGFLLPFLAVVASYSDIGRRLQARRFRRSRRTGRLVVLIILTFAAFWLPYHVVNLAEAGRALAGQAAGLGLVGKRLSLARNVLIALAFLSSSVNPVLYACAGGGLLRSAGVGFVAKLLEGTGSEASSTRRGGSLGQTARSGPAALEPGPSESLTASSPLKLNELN
# Description: as §1
# To examine specificity of some of the compounds for CXCR4, their activity was tested against a non-family member class A G protein-coupled receptor, BLT1. […] I-38 and I-43 inhibited BLT1-mediated chemotaxis (0.23) and (0.045) to about the same extent as CXCR4-mediated chemotaxis (0.21) and (0.064), respectively.
# [6] = molecular target: T3, CXCR4 (Homo sapiens, UniProt P61073); assay: CXCL12-mediated chemotaxis of THP-1 cells; type: cell-based; conditions: 10 μM compound, CXCL12 500 ng/ml
# T3 construct: endogenous in cells; host or cells: THP-1 cells (ATCC TIB-202)
# T3 sequence (P61073 whole entry): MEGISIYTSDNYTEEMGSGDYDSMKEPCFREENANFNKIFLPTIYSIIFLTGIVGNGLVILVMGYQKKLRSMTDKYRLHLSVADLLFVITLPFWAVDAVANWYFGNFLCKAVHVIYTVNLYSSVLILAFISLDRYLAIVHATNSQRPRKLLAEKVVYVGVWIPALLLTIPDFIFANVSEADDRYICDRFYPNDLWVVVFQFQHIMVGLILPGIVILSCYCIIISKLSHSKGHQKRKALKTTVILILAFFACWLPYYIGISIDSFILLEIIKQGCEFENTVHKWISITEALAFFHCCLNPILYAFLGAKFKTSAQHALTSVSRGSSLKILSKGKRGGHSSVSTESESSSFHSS
# Description: Data are presented as a percentage of THP-1 cells (obtainable from ATCC accession number TIB-202) migrating toward a CXCL12 gradient of 500 ng/ml, normalized to the control, which was the CXCL12 only treatment. All assays were performed a minimum of four times with inhibitor concentration of 10 μM, except for I-61 and I-62 which used an inhibitor concentration of 1 μM. Error bars represent the standard deviation of the mean.
# (§2) Chemotaxis assays were performed with selected compounds at a concentration of 10 μM. Chemokines signaling via CXCR4 (CXCL12 at concentration of 500 ng/ml) and CCR5 (RANTES at concentration of 300 ng/ml) were utilized to assess the receptor specificity of each compound. Each pair of columns for a lane corresponds to two separate representative experiments. The negative control samples (lanes 2 and 7) correspond to the chemotaxis without CXCL12 or RANTES. The CXCL12 and RANTES lanes are positive controls corresponding to CXCL12 alone (lanes 1 and 6) or RANTES alone (lanes 4 and 9) mediated chemotaxis. The experimental samples (lanes 3, 5, 8, and 10) correspond to CXCL12- or RANTES-mediated chemotaxis when the cells are co-incubated with I-38 or I-46.
# [7] = molecular target: T1, hCXCR4-GFP; assay: Intracellular calcium mobilization assay, hCXCR4-GFP expressing 300.19 cells, CXCL12; type: cell-based; parameters: IC50 of intracellular calcium mobilization, CXCR4; other: CXCL12-mediated; other: 50 μM test compound; normalized Δ fluorescence (CXCR4, intracellular calcium mobilization); other: 50 μM test compound, 60 seconds pretreatm; conditions: 50 μM test compound
# Description: (§3) Intracellular Calcium Mobilization Assay Method: The intracellular calcium mobilization assay used 300.19 cells which stably expressed hCXCR4-GFP, as described previously in Pello et al. (2008). Cells were loaded with INDO-I and then pretreated with the 50 μM of the test compound for 60 seconds prior to stimulation of intracellular calcium mobilization with an optimized concentration of CXCL12. […] The value Δ florescence is the difference between (a) the fluorescence ratio from cells before exposure to CXCL12 at its optimized concentration and (b) the fluorescence ratio from cells following stimulation with the optimized concentration of CXCL12. Decreases in Δ florescence correspond to decreases in intracellular calcium mobilization, and therefore, decreased signaling. As CXCL12 concentration was optimized for each test compound, results are presented as normalized Δ florescence which is Δ fluorescence divided by the fluorescence ratio of optimized CXCL12-only stimulation. In some instances, the IC50 concentration (concentration at which intracellular calcium mobilization is reduced to 50% of the Δ fluorescence of the CXCL12 plus DMSO control) of the test compounds was determined. All assays were performed a minimum of four times; error bars represent the standard deviation of the mean.
# [8] = molecular target: T4, CCR5 (Homo sapiens, UniProt P51681); assay: RANTES-mediated chemotaxis of THP-1 cells; type: cell-based; conditions: 10 μM compound, RANTES 300 ng/ml
# T4 construct: endogenous in cells; host or cells: THP-1 cells
# T4 sequence (P51681 whole entry): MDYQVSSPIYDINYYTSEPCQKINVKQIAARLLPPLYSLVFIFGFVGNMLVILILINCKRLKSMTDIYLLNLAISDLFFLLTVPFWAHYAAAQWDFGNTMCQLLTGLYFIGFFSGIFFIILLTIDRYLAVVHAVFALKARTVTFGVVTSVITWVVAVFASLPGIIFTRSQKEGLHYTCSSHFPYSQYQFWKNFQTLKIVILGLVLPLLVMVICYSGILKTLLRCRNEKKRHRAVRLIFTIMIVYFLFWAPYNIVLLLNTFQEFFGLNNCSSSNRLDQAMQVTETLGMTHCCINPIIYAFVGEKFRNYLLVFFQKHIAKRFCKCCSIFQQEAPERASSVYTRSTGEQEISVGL
# Description: as §2
# [9] = molecular target: T2, BLT1; assay: Intracellular calcium mobilization assay, cells expressing BLT1, LTB4; type: cell-based; conditions: 50 μM test compound, LTB4
# Description: as §3
# At 50 μM test compound concentrations in BLT1-expressing cells, I-44 (0.040) and I-46 (0.017) inhibited intracellular calcium mobilization.
# T1 sequence (P61073 whole entry): as the sequence (P61073 whole entry) above
"normalized Δ fluorescence (BLT1, intracellular calcium mobilization) [9]","normalized Δ fluorescence (CXCR4, intracellular calcium mobilization) ([7]; 60 seconds pretreatment, optimized CXCL12 (AMD3100 concentration not given))",Structure (SMILES),IC50 [1] [µM],"apparent toxicity (loss of body weight, signs of physiological distress) [2]",efficacy compared with AMD3100 [3],reduction of average tumor burden [3],TC-1 metastatic tumor incidence and burden in lungs ([3]; versus PBS or Vehicle controls),"cytotoxicity, percentage of cells staining positive for PI [4] [%]",chemotaxis index (BLT1-mediated) [5],inhibition of CXCL12-mediated migration of THP-1 cells [6],inhibition of intracellular calcium mobilization (in words) [7],inhibition of RANTES-mediated migration of THP-1 cells [8]
–,–,"O=C(CO/N=C/c1ccccc1)N/N=C1\C(=O)N(CN(Cc2ccccc2)Cc2ccccc2)c2ccccc21 [Compound I-38, acetic acid, 2-[[(phenylmethylene)amino]oxy]-,2-[1-[[bis(phenylmethyl)amino]methyl]-1,2-dihydro-2-oxo-3H-indol-3-ylidene]hydrazide]",5,did not induce any apparent toxicity,more effective than AMD3100,more than 60%,reduced mice TC-1 metastatic tumor incidence and burden in lungs,7.93,0.23,specifically inhibit CXCR4 mediated migration,does not significantly inhibit intracellular calcium mobilization; also recorded: little reduction of intracellular calcium mobilization,specifically inhibit CXCR4 mediated migration
0.017,0.067,"O=C(Nc1ccc2ccc3ccc(NC(=O)c4ccccc4)nc3c2n1)c1ccccc1 [Compound I-46, N,N′-1,10-phenanthroline-2,9-diylbis-benzamide]",–,–,–,–,–,–,–,inhibit migration to both chemokines,–,inhibit migration to both chemokines

# From US9145398B2, “Methods of treating CXCR4-expressing cancers” (University of Louisville Research Foundation, Inc., priority 2010, dated 2015)
